PubChem BioAssay AID1963838 (Molecular Pharmacology Branch, DTP, NCI, 2024)

System: 855422-203-R-J1-PDC complex spheroid viability
Assay: Anticancer human tumor 855422-203-R-J1-PDC patient-derived bladder carcinoma cell line growth inhibition [POLQ]
Conditions: for IC50: curve of first compound; for viability, T/C: stronger effect = lower value
Procedure, shortened: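 PDC + HUVEC + MSC complex spheroids; POLQ inhibitors ± partner drugs; top conc. at/near clinical Cmax, else 10 microM (SN-38 1 microM), half-log dilutions; 37 degrees C, 5% CO2.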

[1] = second compound 0.0316 µM, first compound 0.0316 µM
[2] = second compound 0.0316 µM, first compound 0.1 µM
[3] = second compound 0.0316 µM, first compound 0.316 µM
[4] = second compound 0.0316 µM, first compound 1 µM
[5] = second compound 0.0316 µM, first compound 3.16 µM
[6] = second compound 0.0316 µM, first compound 10 µM
[7] = second compound 0.1 µM, first compound 0.0316 µM
[8] = second compound 0.1 µM, first compound 0.1 µM
[9] = second compound 0.1 µM, first compound 0.316 µM
[10] = second compound 0.1 µM, first compound 1 µM
[11] = second compound 0.1 µM, first compound 3.16 µM
[12] = second compound 0.1 µM, first compound 10 µM
[13] = second compound 0.316 µM, first compound 0.0316 µM
[14] = second compound 0.316 µM, first compound 0.1 µM
[15] = second compound 0.316 µM, first compound 0.316 µM
[16] = second compound 0.316 µM, first compound 1 µM
[17] = second compound 0.316 µM, first compound 3.16 µM
[18] = second compound 0.316 µM, first compound 10 µM
[19] = second compound 1 µM, first compound 0.0316 µM
[20] = second compound 1 µM, first compound 0.1 µM
[21] = second compound 1 µM, first compound 0.316 µM
[22] = second compound 1 µM, first compound 1 µM
[23] = second compound 1 µM, first compound 3.16 µM
[24] = second compound 1 µM, first compound 10 µM
[25] = second compound 3.16 µM, first compound 0.0316 µM
[26] = second compound 3.16 µM, first compound 0.1 µM
[27] = second compound 3.16 µM, first compound 0.316 µM
[28] = second compound 3.16 µM, first compound 1 µM
[29] = second compound 3.16 µM, first compound 3.16 µM
[30] = second compound 3.16 µM, first compound 10 µM
[31] = second compound 10 µM, first compound 0.0316 µM
[32] = second compound 10 µM, first compound 0.1 µM
[33] = second compound 10 µM, first compound 0.316 µM
[34] = second compound 10 µM, first compound 1 µM
[35] = second compound 10 µM, first compound 3.16 µM
[36] = second compound 10 µM, first compound 10 µM
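Also: spheroids exposed to compounds for seven days before readout.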

Work on CC1COCCN1c1cc(-c2ccnn2C)c2ccnc(-c3ccn[nH]3)c2n1 (stereo unspecified) + Cc1cccc(N(C)C(=O)C2C(O)CCN2c2nc(C)cc(C(F)(F)F)c2C#N)c1 yielded an IC50 (second compound 0.0316 µM) of 168 nM, an IC50 (second compound 0.1 µM) of 152 nM and an IC50 (second compound 0.316 µM) of 167 nM. The IC50 (second compound 1 µM) was 165 nM, the IC50 (second compound 3.16 µM) was 155 nM and the IC50 (second compound 10 µM) was 167 nM. For the same compound, the viability, T/C [1] was 113%, the viability, T/C [2] was 73% and the viability, T/C [3] was 21.4%. It also gave a viability, T/C [4] of 12.4%, a viability, T/C [5] of 7.93% and a viability, T/C [6] of 7.23%. The viability, T/C [7] was 94.7%, the viability, T/C [8] was 68.9% and the viability, T/C [9] was 17.3%. For the same compound, the viability, T/C [10] was 9.3%, the viability, T/C [11] was 8.23% and the viability, T/C [12] was 7.12%. For the same compound, the viability, T/C [13] was 108%, the viability, T/C [14] was 73.4% and the viability, T/C [15] was 20.4%. The viability, T/C [16] was 10.9%, the viability, T/C [17] was 7.43% and the viability, T/C [18] was 7.37%. For the same compound, the viability, T/C [19] was 111%, the viability, T/C [20] was 70.3% and the viability, T/C [21] was 23.3%. The viability, T/C [22] was 11.7%, the viability, T/C [23] was 8.35% and the viability, T/C [24] was 7.83%. It also gave a viability, T/C [25] of 105%, a viability, T/C [26] of 66.8% and a viability, T/C [27] of 22.7%. The viability, T/C [28] was 10.6%, the viability, T/C [29] was 7.46% and the viability, T/C [30] was 6.31%. For the same compound, the viability, T/C [31] was 93.5%, the viability, T/C [32] was 70.3% and the viability, T/C [33] was 24.7%. The viability, T/C [34] was 12.4%, the viability, T/C [35] was 8.8% and the viability, T/C [36] was 9.23%.

In the case of CC1COCCN1c1cc(C2(S(C)(=N)=O)CC2)nc(-c2ccnc3[nH]ccc23)n1 (stereo unspecified) + Cc1cccc(N(C)C(=O)C2C(O)CCN2c2nc(C)cc(C(F)(F)F)c2C#N)c1, the IC50 (second compound 0.0316 µM) is reported as 2560 nM, the IC50 (second compound 0.1 µM) is reported as 2660 nM and the IC50 (second compound 0.316 µM) is reported as 2500 nM. It also gave an IC50 (second compound 1 µM) of 2490 nM, an IC50 (second compound 3.16 µM) of 2370 nM and an IC50 (second compound 10 µM) of 2140 nM. It also gave a viability, T/C [1] of 112%, a viability, T/C [2] of 97.3% and a viability, T/C [3] of 107%. It also gave a viability, T/C [4] of 106%, a viability, T/C [5] of 37.4% and a viability, T/C [6] of 12.5%. The viability, T/C [7] was 94.7%, the viability, T/C [8] was 107% and the viability, T/C [9] was 115%. The viability, T/C [10] was 100%, the viability, T/C [11] was 41.1% and the viability, T/C [12] was 10.7%. The viability, T/C [13] was 96.3%, the viability, T/C [14] was 106% and the viability, T/C [15] was 101%. The viability, T/C [16] was 107%, the viability, T/C [17] was 36.6% and the viability, T/C [18] was 10.6%. For the same compound, the viability, T/C [19] was 110%, the viability, T/C [20] was 123% and the viability, T/C [21] was 115%. It also gave a viability, T/C [22] of 103%, a viability, T/C [23] of 36% and a viability, T/C [24] of 10.8%. For the same compound, the viability, T/C [25] was 105%, the viability, T/C [26] was 119% and the viability, T/C [27] was 94.5%. The viability, T/C [28] was 105%, the viability, T/C [29] was 31.4% and the viability, T/C [30] was 10.2%. For the same compound, the viability, T/C [31] was 103%, the viability, T/C [32] was 102% and the viability, T/C [33] was 105%. The viability, T/C [34] was 97.5%, the viability, T/C [35] was 25.7% and the viability, T/C [36] was 14.1%.

With COc1ccc([C@@H](O)c2cc(-c3ncnc4cc(N5CCOCC5)ccc34)c(F)cc2Cl)nn1 + Cc1cccc(N(C)C(=O)C2C(O)CCN2c2nc(C)cc(C(F)(F)F)c2C#N)c1 the IC50 (second compound 0.0316 µM) was 5340 nM, the IC50 (second compound 0.1 µM) was 5160 nM and the IC50 (second compound 0.316 µM) was 4250 nM. The IC50 (second compound 1 µM) was 3050 nM, the IC50 (second compound 3.16 µM) was 4180 nM and the IC50 (second compound 10 µM) was 2370 nM. The viability, T/C [1] was 98.5%, the viability, T/C [2] was 109% and the viability, T/C [3] was 107%. For the same compound, the viability, T/C [4] was 84.7%, the viability, T/C [5] was 66.1% and the viability, T/C [6] was 32.7%. The viability, T/C [7] was 93.1%, the viability, T/C [8] was 101% and the viability, T/C [9] was 83.8%. For the same compound, the viability, T/C [10] was 87.7%, the viability, T/C [11] was 63.9% and the viability, T/C [12] was 30.1%. For the same compound, the viability, T/C [13] was 101%, the viability, T/C [14] was 111% and the viability, T/C [15] was 104%. The viability, T/C [16] was 82.3%, the viability, T/C [17] was 58.1% and the viability, T/C [18] was 31.2%. For the same compound, the viability, T/C [19] was 98.8%, the viability, T/C [20] was 97.2% and the viability, T/C [21] was 99.7%. The viability, T/C [22] was 86.5%, the viability, T/C [23] was 49% and the viability, T/C [24] was 26.3%. For the same compound, the viability, T/C [25] was 108%, the viability, T/C [26] was 106% and the viability, T/C [27] was 89%. For the same compound, the viability, T/C [28] was 79.5%, the viability, T/C [29] was 56.2% and the viability, T/C [30] was 29.6%. The viability, T/C [31] was 96.4%, the viability, T/C [32] was 105% and the viability, T/C [33] was 96.5%. The viability, T/C [34] was 66.8%, the viability, T/C [35] was 47% and the viability, T/C [36] was 28.8%.
